Numbered stars: 1 amine (or outer) side, 2 acyl side, 3 side chain; on linkers, the order of the positions; unused ones are H or OH. Square brackets hold non-standard residues; d marks the D form. Side chains are listed from the residue outwards. Peptide text beside a SMILES is read from it. * marks the point of attachment. C20 diacid = O=C(O)CCCCCCCCCCCCCCCCCCC(=O)*; γGlu = O=C(O)[C@H](CCC(=O)[*:2])N[*:1]; AEEA = NCCOCCOCC(=O)O; Aib = CC(C)(N)C(=O)O
Experiments:
[1] = Turbidity of crude library peptides (absorbance at 600 nm); type: physicochemical; conditions: Physical stability of peptides
In short: (§1)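 Turbidity is the absorbance at 600 nm, taken before heating. Fibril signal is the mean ThT emission at 480 nm (450 nm excitation), read every 10 min over 72 h at 40° C with 700 rpm shaking between reads. Peptides at 267 μM, pH 4.0 acetate or pH 7.0 phosphate buffer (50 mM), 4 μM ThT final.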

[2] = Fibril formation of crude library peptides (Thioflavin T); type: physicochemical; design: key: average ThT fluorescence emission at 480 nm (ex 450 nm), raw units; conditions: Physical stability of peptides
In short: as §1

GLP1R = GLP1R (Homo sapiens, UniProt P43220); experiment: hGLP1R potency, cAMP accumulation in CHO-K1 cells stably overexpressing hGLP1R; type: cell-based; design: host or cells: CHO-K1; conditions: for EC50: cAMP accumulation, CHO-K1 cells overexpressing hGLP1R, read-out: hGLP1R pEC50 (converted); for SCTR EC50/GLP1R EC50 ratio: selectivity for hGLP1R over hSCTR, cAMP accumulation in CHO-K1 cells
Chain of GLP1R (P43220 24-463): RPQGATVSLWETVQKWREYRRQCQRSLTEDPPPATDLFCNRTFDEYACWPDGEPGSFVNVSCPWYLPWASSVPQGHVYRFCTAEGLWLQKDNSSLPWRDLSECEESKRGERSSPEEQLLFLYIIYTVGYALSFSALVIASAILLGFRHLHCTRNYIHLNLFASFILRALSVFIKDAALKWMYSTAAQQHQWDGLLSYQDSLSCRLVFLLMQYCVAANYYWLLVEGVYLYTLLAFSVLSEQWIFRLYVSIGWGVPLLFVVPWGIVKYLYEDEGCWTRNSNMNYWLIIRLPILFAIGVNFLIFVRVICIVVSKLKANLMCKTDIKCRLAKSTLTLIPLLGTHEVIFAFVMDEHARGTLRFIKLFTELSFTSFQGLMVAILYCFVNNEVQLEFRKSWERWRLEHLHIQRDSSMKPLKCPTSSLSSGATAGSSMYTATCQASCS
In short: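 EC50 derives from variable-slope nonlinear regression of cAMP HTRF signal, with purified peptides tested as 11 three-fold dilutions in duplicate. Assay: hGLP1R-overexpressing CHO-K1 cells, 0.5 mM IBMX, 0.05% casein in DPBS, 30 min room-temperature stimulation, GLP-1(7-36) as reference agonist.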

SCTR = SCTR (Homo sapiens, UniProt P47872); experiment: hSCTR potency, cAMP accumulation in CHO-K1 cells stably overexpressing hSCTR; type: cell-based; design: alternatively Euroscreen ES-712-AF; FAST-0161L; host or cells: CHO-K1; conditions: cAMP accumulation, CHO-K1 cells overexpressing hSCTR; read-out: hSCTR pEC50 (converted)
Chain of SCTR (P47872 23-440): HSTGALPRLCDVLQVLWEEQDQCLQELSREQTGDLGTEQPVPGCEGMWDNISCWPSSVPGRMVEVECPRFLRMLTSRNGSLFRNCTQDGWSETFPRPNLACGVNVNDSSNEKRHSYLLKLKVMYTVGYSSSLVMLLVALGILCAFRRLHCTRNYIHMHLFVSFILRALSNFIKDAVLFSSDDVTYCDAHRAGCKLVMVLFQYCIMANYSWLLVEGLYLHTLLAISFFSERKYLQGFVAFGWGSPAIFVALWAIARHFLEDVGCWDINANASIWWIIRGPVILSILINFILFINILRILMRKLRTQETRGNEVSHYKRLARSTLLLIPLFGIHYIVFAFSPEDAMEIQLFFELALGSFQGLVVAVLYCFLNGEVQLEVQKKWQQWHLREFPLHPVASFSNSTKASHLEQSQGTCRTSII
In short: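 EC50 derived from variable-slope nonlinear regression on 11-point, 3-fold series run in duplicate (crude peptides: 5 points, 10-fold, n=1). Compound stimulation lasted 30 min at room temperature in casein/IBMX-containing DPBS (0.05%, 0.5 mM), 2000 cells/well; cAMP detected by time-resolved FRET after one hour.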

Turbidity (pH 7) [1] | Fibril formation [2] | EC50 (GLP1R) | SCTR EC50/GLP1R EC50 ratio (GLP1R) | EC50 (SCTR) | Structure (SMILES)
0.08 | 3358 | 0.02 nM | 10415 | 200 nM | CC(C)C[C@H](NC(=O)[C@H](C)NC(=O)[C@H](CCC(=O)O)NC(=O)[C@H](CCC(=O)O)NC(=O)[C@H](CCCCNC(=O)COCCOCCNC(=O)COCCOCCNC(=O)CC[C@H](NC(=O)CCCCCCCCCCCCCCCCCCC(=O)O)C(=O)O)NC(=O)[C@H](CC(C)C)NC(=O)[C@H](Cc1ccc(O)cc1)NC(=O)[C@H](CO)NC(=O)[C@@H](NC(=O)[C@H](CC(=O)O)NC(=O)[C@H](CO)NC(=O)[C@@H](NC(=O)[C@H](Cc1ccccc1)NC(=O)[C@@H](NC(=O)CNC(=O)[C@H](CCC(=O)O)NC(=O)C(C)(C)NC(=O)[C@@H](N)Cc1c[nH]cn1)[C@@H](C)O)[C@@H](C)O)C(C)C)C(=O)N[C@@H](CC(C)C)C(=O)N[C@@H](CCC(N)=O)C(=O)N[C@@H](CCCNC(=N)N)C(=O)N[C@@H](Cc1ccccc1)C(=O)N[C@@H](CC(C)C)C(=O)N[C@@H](CCC(=O)O)C(=O)N[C@@H](Cc1c[nH]cn1)C(=O)N[C@@H](CC(C)C)C(=O)N[C@H](C(N)=O)C(C)C [compound 132] (H-H[Aib]EGTFTSDVSYLK([AEEA-AEEA-γGlu-C20 diacid])EEALLQRFLEHLV-NH2)
0.08 | 4303 | 0.0158 nM | 23332 | 398 nM | CC(C)C[C@H](NC(=O)[C@H](Cc1ccccc1)NC(=O)[C@H](CCCNC(=N)N)NC(=O)[C@H](CCC(N)=O)NC(=O)[C@H](CC(C)C)NC(=O)C(C)(C)NC(=O)[C@H](C)NC(=O)[C@H](CCC(=O)O)NC(=O)[C@H](CCC(=O)O)NC(=O)[C@H](CCCCNC(=O)COCCOCCNC(=O)COCCOCCNC(=O)CC[C@H](NC(=O)CCCCCCCCCCCCCCCCCCC(=O)O)C(=O)O)NC(=O)[C@H](CC(C)C)NC(=O)[C@H](Cc1ccc(O)cc1)NC(=O)[C@H](CO)NC(=O)[C@@H](NC(=O)[C@H](CC(=O)O)NC(=O)[C@H](CO)NC(=O)[C@@H](NC(=O)[C@H](Cc1ccccc1)NC(=O)[C@@H](NC(=O)CNC(=O)[C@H](CCC(=O)O)NC(=O)C(C)(C)NC(=O)[C@@H](N)Cc1c[nH]cn1)[C@@H](C)O)[C@@H](C)O)C(C)C)C(=O)N[C@@H](CCC(=O)O)C(=O)N[C@@H](Cc1ccccc1)C(=O)N[C@@H](CC(C)C)C(=O)N[C@H](C(N)=O)C(C)C [compound 133] (H-H[Aib]EGTFTSDVSYLK([AEEA-AEEA-γGlu-C20 diacid])EEA[Aib]LQRFLEFLV-NH2)
0.08 | 3061 | 0.00794 nM | 303145 | 2510 nM | CC(C)C[C@H](NC(=O)[C@H](Cc1ccccc1)NC(=O)[C@H](CCCNC(=N)N)NC(=O)[C@H](CCC(N)=O)NC(=O)[C@H](CO)NC(=O)C(C)(C)NC(=O)[C@H](C)NC(=O)[C@H](CCC(=O)O)NC(=O)[C@H](CCC(=O)O)NC(=O)[C@H](CCCCNC(=O)COCCOCCNC(=O)COCCOCCNC(=O)CC[C@H](NC(=O)CCCCCCCCCCCCCCCCCCC(=O)O)C(=O)O)NC(=O)[C@H](CC(C)C)NC(=O)[C@H](Cc1ccc(O)cc1)NC(=O)[C@H](CO)NC(=O)[C@@H](NC(=O)[C@H](CC(=O)O)NC(=O)[C@H](CO)NC(=O)[C@@H](NC(=O)[C@H](Cc1ccccc1)NC(=O)[C@@H](NC(=O)CNC(=O)[C@H](CCC(=O)O)NC(=O)C(C)(C)NC(=O)[C@@H](N)Cc1c[nH]cn1)[C@@H](C)O)[C@@H](C)O)C(C)C)C(=O)N[C@@H](CCC(=O)O)C(=O)N[C@@H](Cc1c[nH]cn1)C(=O)N[C@@H](CC(C)C)C(=O)N[C@H](C(N)=O)C(C)C [compound 134] (H-H[Aib]EGTFTSDVSYLK([AEEA-AEEA-γGlu-C20 diacid])EEA[Aib]SQRFLEHLV-NH2)

Source: patent publication US20260201008A1, “SECRETIN-DERIVED GLP1R SELECTIVE AGONISTS” (GUBRA A/S, priority 2023, published 2026)
